US20250325569A1, “COMPOSITIONS AND METHODS OF MAKING AND USE THEREOF” (Ohio State Innovation Foundation, priority 2022, published 2025)
Values after ≈ are worked out from the molar mass of the structure shown.

Tests used:
Assay type in all cases: cell-based
Escherichia coli K12 = assay: Microbroth dilution MIC; conditions: for MIC: Escherichia coli K12
Description: (§1) Antimicrobial Assays. Susceptibility testing was performed using the microbroth dilution method in 96 round-well microtiter plates following the general guidelines described by the Clinical and Laboratory Standards Institute (CLSI). Compounds were prepared as 50λ of stocks (10 mM) by dissolving in dI H2O. All bacterial strains were grown and assayed in Mueller-Hinton and M9 glucose media (with amendments added as required), and yeast strains in YMM. Overnight cultures were inoculated into 3 mL of fresh growth media following a 1:100 dilution. Upon mid-exponential growth (OD600 0.4-0.6), cultures were diluted to 5×10^6 CFU mL-1 (based on previously determined calibration curves) and used as inoculum into assay plates. Wells contained 100 μL of media with 5×10^5 CFU mL-1 of test organism, and serial ½-dilutions of the test compound (starting with 200 μM). E. coli WM6242 was assayed with induction of the phosphonic acid uptake system including 1 mM IPTG in assay wells. Controls wells contained 200 µM kanamycin (for bacteria) or nystatin (for yeasts), no compound addition (vehicle only), and no cell addition (added media instead). Microtiter plates were incubated with shaking (220 rpm) at their respective growth temperatures. Culture densities (OD600) were recorded using a Bio-Rad xMark microplate spectrophotometer after 16 hours for all strains except Bacillus, which were after 24 hours. Assays were performed in triplicated on separate independent days. […] Minimum inhibitory concentrations are from triplicate assays performed on separate days.
(§2) Antimicrobial Assays. […] Susceptibility testing was performed using the microbroth dilution method in 96 round-well microtiter plates as previously described [A20]. Compounds were prepared as 50× of stocks (10 Mm) by dissolving in Di H2O. All bacterial strains were grown and assayed M9 glucose media (with amendments added as required), and yeast strains in YMM. Controls wells contained 200 µM kanamycin (for bacteria) or nystatin (for yeasts), no compound addition (vehicle only), and no cell addition (added media instead). Culture densities (OD600) were recorded using a Bio-Rad xMark microplate spectrophotometer after 16 hours for all strains except bacilli, which were recorded after 24 hours. […] MICs values are from triplicate assays performed on separate days. Disk diffusion assays were used to assess antimicrobial activity of the purified compounds against filamentous fungi and against Mycobacterium smegmatis [A20].

Pseudomonas aeruginosa K = assay: Microbroth dilution MIC; conditions: for MIC: Pseudomonas aeruginosa K
Description: as §1, §2

Salmonella enterica LT2 = assay: Microbroth dilution MIC; conditions: for MIC: Salmonella enterica LT2
Description: as §1, §2

[1] = test system: Serratia marcescens NRRL B-2544; assay: Microbroth dilution MIC; conditions: for MIC: Serratia marcescens NRRL B-2544
Description: as §1, §2

[2] = test system: Curtobacterium sp. MMLR14_014; assay: Antibacterial susceptibility testing; conditions: strains of Curtobacterium commonly present in soils and on plants
Description: as §2

[3] = test system: Acinetobacter calcoaceticus ATCC 23055; assay: Microbroth dilution MIC
Description: as §1, §2

[4] = test system: Bacillus megaterium ATCC 19213; assay: Microbroth dilution MIC
Description: as §1, §2

[5] = test system: Bacillus subtilis ATCC 6633; assay: Microbroth dilution MIC
Description: as §1, §2

[6] = test system: Citrobacter freundii ATCC 8090; assay: Microbroth dilution MIC
Description: as §1, §2

[7] = test system: Enterobacter aerogenes CDC 1998-68; assay: Microbroth dilution MIC
Description: as §1, §2

[8] = test system: Erwinia rhapontici KSJ3948; assay: Microbroth dilution MIC
Description: as §1, §2

[9] = test system: Pantoea ananatis LMG 20103; assay: Microbroth dilution MIC
Description: as §1, §2

[10] = test system: Pseudomonas aeruginosa PA01; assay: Microbroth dilution MIC
Description: as §1, §2

Rhodococcus jostii RHA1 = assay: Microbroth dilution MIC
Description: as §1, §2

[11] = test system: Staphylococcus aureus ATCC 23055; assay: Microbroth dilution MIC
Description: as §1, §2

Escherichia coli WM6242 = assay: Microbroth dilution MIC; conditions: Table 2 (MIC90), triplicate
Description: (§3) Antimicrobial Assays. […] Compounds were prepared as 50λ of stocks (10 mM) by dissolving in dI H2O. […] Overnight cultures were inoculated into 3 mL of fresh growth media following a 1:100 dilution. Upon mid-exponential growth (OD600 0.4-0.6), cultures were diluted to 5×10^6 CFU mL-1 (based on previously determined calibration curves) and used as inoculum into assay plates. Wells contained 100 μL of media with 5×10^5 CFU mL-1 of test organism, and serial ½-dilutions of the test compound (starting with 200 μM). E. coli WM6242 was assayed with induction of the phosphonic acid uptake system including 1 mM IPTG in assay wells. […] Microtiter plates were incubated with shaking (220 rpm) at their respective growth temperatures. […] Assays were performed in triplicated on separate independent days. […] Minimum inhibitory concentrations are from triplicate assays performed on separate days.

[12] = test system: Escherichia coli WM6242 (Pn Uptake Induced); assay: Microbroth dilution MIC, phosphonate uptake induced with 1 mM IPTG
Description: as §3

[13] = test system: Acidovorax avenae ATCC 19860; assay: Microbroth dilution MIC; conditions: Paracidovorax avenae, ATCC19860, Table 13, minimal media
Description: as §2

[14] = test system: Acidovorax citrulli ATCC 29625; assay: Microbroth dilution MIC; conditions: Paracidovorax citrulli, ATCC29625, Table 13, minimal media
Description: as §2

[15] = test system: Acidovorax konjacii ATCC 33996; assay: Microbroth dilution MIC; conditions: Table 13, minimal media
Description: as §2

[16] = test system: Acidovorax temperans ATCC 49665; assay: Microbroth dilution MIC; conditions: ATCC49665, Table 13, minimal media
Description: as §2

[17] = test system: Acidovroax delafieldii ATCC 17505; assay: Microbroth dilution MIC; conditions: Table 13, minimal media
Description: as §2

[18] = test system: Pseudomonas fluorescens Pf5; assay: Microbroth dilution MIC; conditions: Table 13, minimal media
Description: as §2

[19] = test system: Pseudomonas medocina Palleroni ATCC 25411; assay: Microbroth dilution MIC; conditions: ATCC25411, Table 13, minimal media
Description: as §2

[20] = test system: Pseudomonas syringae pv. Tomato Max 14; assay: Microbroth dilution MIC; conditions: Table 13, minimal media
Description: as §2

[21] = test system: Salmonella enterica ser. Livingstone 1236H; assay: Microbroth dilution MIC
Description: as §2

[22] = test system: Salmonella enterica ser. Tennessee E2007000304; assay: Microbroth dilution MIC; conditions: Table 13, minimal media
Description: as §2

[23] = test system: Pseudomonas syringae B278a; assay: microbe, parasite or virus in culture; conditions: Table 13, minimal media
Description: as §2

[24] = test system: yeast, and filamentous fungi; assay: Antifungal activity: microbroth dilution (yeasts) and disk diffusion (filamentous fungi); conditions: panel of yeast and filamentous fungi (Table 12)
Description: Antimicrobial Assays. Susceptibility testing was performed using the microbroth dilution method in 96 round-well microtiter plates following the general guidelines described by the Clinical and Laboratory Standards Institute (CLSI). Compounds were prepared as 50λ of stocks (10 mM) by dissolving in dI H2O. All bacterial strains were grown and assayed in Mueller-Hinton and M9 glucose media (with amendments added as required), and yeast strains in YMM. Overnight cultures were inoculated into 3 mL of fresh growth media following a 1:100 dilution. Upon mid-exponential growth (OD600 0.4-0.6), cultures were diluted to 5×10^6 CFU mL-1 (based on previously determined calibration curves) and used as inoculum into assay plates. Wells contained 100 μL of media with 5×10^5 CFU mL-1 of test organism, and serial ½-dilutions of the test compound (starting with 200 μM). E. coli WM6242 was assayed with induction of the phosphonic acid uptake system including 1 mM IPTG in assay wells. […] Culture densities (OD600) were recorded using a Bio-Rad xMark microplate spectrophotometer after 16 hours for all strains except Bacillus, which were after 24 hours. […]
Antimicrobial Assays. […] Culture densities (OD600) were recorded using a Bio-Rad xMark microplate spectrophotometer after 16 hours for all strains except bacilli, which were recorded after 24 hours. […]

[25] = ATCC23055, Table 2 (MIC90), microbroth dilution, triplicate
[26] = Table 13, minimal media, ≥90% growth inhibition
[27] = Table 2 (MIC90), microbroth dilution, triplicate

`CC(N)C(=O)NC(C)C(=O)NC(CP(=O)(O)O)C(=O)O` (stereo not drawn) [Compound 3] was tested, and the “inhibitory activity compared with phosphonoalamide A (previously measured)” value (Escherichia coli K12; E. coli K12, i.e. lower MICs) was “greater inhibitory activity”, the “inhibitory activity compared with phosphonoalamide A (previously measured)” value (Pseudomonas aeruginosa K; P. aeuroginosa K, i.e. lower MICs) was “greater inhibitory activity” and the “inhibitory activity compared with phosphonoalamide A (previously measured)” value (Salmonella enterica LT2; S. enterica LT2, i.e. lower MICs) was “greater inhibitory activity”. The “inhibitory activity compared with phosphonoalamide A (previously measured)” value ([1]; S. marcescens B-2544, i.e. lower MICs) was “greater inhibitory activity” and the “inhibition (in words)” value [2] was “Neither compound inhibited”.
In the case of `CC(N)C(=O)NC(CP(=O)(O)O)C(=O)O` (stereo not drawn) [Compound 2], the MIC [3, 25] is reported as > 200 µM, the MIC ([3]; Table 13, minimal media) is reported as >200 µM and the MIC ([4]; Priestia megaterium, ATCC19213, Table 2 (MIC90), microbroth dilution, triplicate) is reported as 12.5 µM (≈ 3 µg/mL). The MIC ([4]; Table 13, minimal media) was 12.5 µM (≈ 3 µg/mL), the MIC ([5]; ATCC6633, Table 2 (MIC90), microbroth dilution, triplicate) was 200 µM (≈ 48 µg/mL) and the MIC ([5]; Table 13, minimal media) was 200 µM (≈ 48 µg/mL). For the same compound, the MIC ([6]; ATCC8090, Table 2 (MIC90), microbroth dilution, triplicate) was > 200 µM, the MIC [6, 26] was >200 µM and the MIC ([7]; Klebsiella aerogenes, CDC199868, Table 2 (MIC90), microbroth dilution, triplicate) was > 200 µM. For the same compound, the MIC [7, 26] was >200 µM, the MIC ([8]; KSJ3948, Table 2 (MIC90), Erwinia rhapontici KSJ, microbroth dilution, triplicate) was > 200 µM and the MIC ([8]; Table 13, Erwinia rhapontici KSJ3948, minimal media, ≥90% growth inhibition) was >200 µM. For the same compound, the MIC (Escherichia coli K12; [27]) was > 200 µM, the MIC (Escherichia coli K12; [26]) was >200 µM and the MIC ([9]; LMG20103, Table 2 (MIC90), microbroth dilution, triplicate) was 100 µM (≈ 24 µg/mL). The MIC [9, 26] was 100 µM (≈ 24 µg/mL), the MIC (Pseudomonas aeruginosa K; [27]) was > 200 µM and the MIC (Pseudomonas aeruginosa K; Table 13, minimal media) was >200 µM. The MIC [10, 27] was > 200 µM, the MIC ([10]; Table 13, minimal media) was >200 µM and the MIC (Rhodococcus jostii RHA1; [27]) was > 200 µM. The MIC (Rhodococcus jostii RHA1; Table 13, minimal media) was >200 µM, the MIC (Salmonella enterica LT2; [27]) was > 200 µM and the MIC (Salmonella enterica LT2; [26]) was >200 µM. For the same compound, the MIC ([1]; NRRLB2544, Table 2 (MIC90), microbroth dilution, triplicate) was > 200 µM, the MIC ([1]; Table 13, minimal media) was >200 µM and the MIC [11, 25] was > 200 µM. The MIC ([11]; Table 13, minimal media) was >200 µM, the MIC (Escherichia coli WM6242) was > 200 µM and the MIC [12] was > 200 µM. For the same compound, the MIC [13] was > 200 µM, the MIC [14] was > 200 µM and the MIC [15] was > 200 µM. For the same compound, the MIC [16] was > 200 µM, the MIC [17] was > 200 µM and the MIC [18] was > 200 µM. The MIC [19] was > 200 µM, the MIC [20] was > 200 µM and the MIC [21] was > 200 µM. The MIC [22] was > 200 µM, the MIC [23] was > 200 µM and the “antifungal activity (in words)” value [24] was “neither compound exhibited antifungal activity”. For the same compound, the “inhibition (in words)” value [2] was “Neither compound inhibited”.
